Measurements taken from patent US5750530A, “Pharmaceutical diketopiperazine compounds” (Xenova Limited, priority 1994, dated 1998).
pIC50: −log10 of the molar value. Structures can show the parent of a compound that is named as a salt.

Target: PAI-1 (Homo sapiens, UniProt P05121)
Assay: biochemical
Assay type: biochemical
Details: for pIC50: PAI chromogenic substrate assay
Experimental: The present compounds have been tested in a PAI functional assay. In this assay, a compound is incubated with PAI-1 prior to addition to the tPA assay system. Inhibition of PAI-1 results in the production of plasmin from plasminogen. In turn, plasmin cleaves the chromogenic substrate S2251 (Kabi Vitrum) producing pNA (p-nitroaniline) which is detected spectrophotometrically at 405 nm (K. Nilsson et al, Fibrinolysis (1987) 1, 163-168).
The present compounds were tested in a PAI chromogenic substrate assay. In the assay (K. Nilsson, Fibrinolysis (1987) 1, 163-168) each compound was incubated with PAI-1 prior to addition to the tPA assay system. […] In turn, the plasmin cleaved the chromogenic substrate S2251 (Kabi-Vitrum) producing pNA (p-nitroaniline) which was detected spectrophotometrically at 405 nm.
The degrees of inhibition observed in the chromogenic substrate assay at various concentrations, or the IC50 values, for each compound are presented in Table 1.

Chain of PAI-1 (P05121 24-402): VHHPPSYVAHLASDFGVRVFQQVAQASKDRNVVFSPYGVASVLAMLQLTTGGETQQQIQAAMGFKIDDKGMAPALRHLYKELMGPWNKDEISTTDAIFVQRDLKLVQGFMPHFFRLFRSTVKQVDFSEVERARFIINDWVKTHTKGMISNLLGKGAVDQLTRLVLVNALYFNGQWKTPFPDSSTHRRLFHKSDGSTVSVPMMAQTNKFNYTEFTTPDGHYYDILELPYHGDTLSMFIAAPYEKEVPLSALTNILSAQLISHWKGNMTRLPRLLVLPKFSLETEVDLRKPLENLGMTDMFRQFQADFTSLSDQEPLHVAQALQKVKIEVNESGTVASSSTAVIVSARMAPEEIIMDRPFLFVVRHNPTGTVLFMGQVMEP

Compound	% Inhibition (5 μm) [%]	% Inhibition (20 μm) [%]	pIC50	% Inhibition (100 μm) [%]
COc1cc(/C=c2\[nH]c(=O)/c(=C/c3ccc(SCCN(C)C)s3)[nH]c2=O)ccc1OCc1ccc([N+](=O)[O-])cc1 [Compound 5488, (3Z,6Z)-3-(5-(2-Dimethylaminoethylthio)-2-thienyl)methylene-6-(3-methoxy-4-(4-nitrobenzyloxy)benzylidene)-2,5-piperazinedione]	14	64	5.09	
CN(C)CCSc1ccc(/C=c2\[nH]c(=O)/c(=C/c3ccc(C(F)(F)F)cc3)[nH]c2=O)s1 [Compound 5293, (3Z,6Z)-3-(5-(2-Dimethylaminoethylthio)-2-thienyl)methylene-6-(4-trifluoromethylbenzylidene)-2,5-piperazinedione]			4.70	
CN(C)CCSc1ccc(/C=c2\[nH]c(=O)/c(=C/c3ccc4ccccc4n3)[nH]c2=O)s1 [Compound 5308.HCl, (3Z,6Z)-6-(5-(2-Dimethylaminoethylthio)-2-thienyl)methylene-3-(2-quinolylmethylene)-2,5-piperazinedione]		93	5.35	93
CN(C)CCSc1ccc(/C=c2\[nH]c(=O)/c(=C/c3ccc4c(c3)CCO4)[nH]c2=O)s1 [Compound 5311.HCl, (3Z,6Z)-3-(2,3-dihydro-5-benzofuranyl)methylene-6-(5-(2-dimethylaminoethylthio)-2-thienyl)methylene-2,5-piperazinedione]			4.70	
COc1ccc(/C=c2\[nH]c(=O)/c(=C/c3ccc(SCCN(C)C)s3)[nH]c2=O)cc1 [Compound 5464.HCl, (3Z,6Z)-3-(5-(2-Dimethylaminoethylthio)-2-thienyl)methylene-6-(4-methoxybenzylidene)-2,5-piperazinedione]	17	61	4.95	
CN(C)CCSc1ccc(/C=c2\[nH]c(=O)/c(=C/c3cccc(Cl)c3)[nH]c2=O)s1 [Compound 5291, (3Z,6Z)-6-(3-Chlorobenzylidene)-3-(5-(2-dimethylaminoethylthio)-2-thienyl)methylene-2,5-piperazinedione]			4.70	
CN(C)CCSc1ccc(/C=c2\[nH]c(=O)/c(=C/c3ccccc3)[nH]c2=O)cc1 [Compound 5128.HCl, (3Z,6Z)-6-Benzylidene-3-(4-(2-dimethylaminoethylthio)benzylidene)-2,5-piperazinedione]	5	71	5.00	69
CN(C)CCSc1ccc(/C=c2\[nH]c(=O)/c(=C/c3cccnc3)[nH]c2=O)s1 [Compound 5470.HCl, (3Z,6Z)-6-(5-(2-Dimethylaminoethylthio)-2-thienyl)methylene-3-(3-pyridylmethylene)-2,5-piperazinedione]	1	1		
Cc1ccc(/C=c2\[nH]c(=O)/c(=C/c3ccc(SCCN(C)C)s3)[nH]c2=O)cc1 [Compound 5460, (3Z,6Z)-3-(5-(2-Dimethylaminoethylthio)-2-thienyl)methylene-6-(4-methylbenzylidene)-2,5-piperazinedione]	34	83	4.91	
CN(C)CCSc1ccc(/C=c2\[nH]c(=O)/c(=C/c3ccc4ccccc4c3)[nH]c2=O)s1 [Compound 5286.HCl, (3Z,6Z)-3-(5-(2-Dimethylaminoethylthio)-2-thienyl)methylene-6-(2-naphthyl)methylene-2,5-piperazinedione]		77	4.85	98
CN(C)CCSc1ccc(/C=c2\[nH]c(=O)/c(=C/c3cccc(Cl)c3)[nH]c2=O)cc1 [Compound 5292, (3Z,6Z)-3-(3-Chlorobenzylidene)-6-(4-(2-dimethylaminoethylthio)benzylidene)-2,5-piperazinedione]			5.52	
CN(C)CCSc1ccc(/C=c2\[nH]c(=O)/c(=C/c3ccc(OCc4ccccc4)cc3)[nH]c2=O)cc1 [Compound 5481.HCl, (3Z,6Z)-3-(4-Benzyloxybenzylidene)-6-(4-(2-dimethylaminoethylthio)benzylidene)-2,5-piperazinedione]	10	55		
CN(C)CCSc1ccc(/C=c2\[nH]c(=O)/c(=C/c3ccc4ccccc4c3)[nH]c2=O)cc1 [Compound 5284, (3Z,6Z)-6-(4-(2-Dimethylaminoethylthio)benzylidene)-3-(2-naphthylmethylene)-2,5-piperazinedione]			5.52	
COc1cc(/C=c2\[nH]c(=O)/c(=C/c3ccc(SCCN(C)C)cc3)[nH]c2=O)ccc1OCc1ccc([N+](=O)[O-])cc1 [Compound 5490.HCl, (3Z,6Z)-6-(4-(2-Dimethylaminoethylthio)benzylidene)-3-(3-methoxy-4-(4-nitrobenzyloxy)benzylidene)-2,5-piperazinedione]	12	66	4.97	
CN(C)CCSc1ccc(/C=c2\[nH]c(=O)/c(=C/c3cn(C)c4ccccc34)[nH]c2=O)s1 [Compound 5473, (3Z,6Z)-6-(5-(2-Dimethylaminoethylthio)-2-thienyl)methylene-3-(1-methyl-3-indolyl)methylene-2,5-piperazinedione]	25	61	4.86	
Cc1cccc(/C=c2\[nH]c(=O)/c(=C/c3ccc(SCCN(C)C)cc3)[nH]c2=O)c1 [Compound 5439, (3Z,6Z)-6-(4-(2-Dimethylaminoethylthio)benzylidene)-3-(3-methylbenzylidene)-2,5-piperazinedione]	5	46	4.82	
COc1cccc(/C=c2\[nH]c(=O)/c(=C/c3ccc(SCCN(C)C)s3)[nH]c2=O)c1 [Compound 5314, (3Z,6Z)-3-(5-(2-Dimethylaminoethylthio)-2-thienyl)methylene-6-(3-methoxybenzylidene)-2,5-piperazinedione]			5.46	
CC(=O)Nc1ccc(/C=c2\[nH]c(=O)/c(=C/c3ccc(SCCN(C)C)s3)[nH]c2=O)cc1 [Compound 5300, (3Z,6Z)-6-(4-Acetamidobenzylidene)-3-(5-(2-dimethylaminoethylthio)-2-thienyl)methylene-2,5-piperazinedione]		64	4.60	70
CN(C)CCSc1ccc(/C=c2\[nH]c(=O)/c(=C/c3ccccc3Br)[nH]c2=O)s1 [Compound 5313.HCl, (3Z,6Z)-6-(2-Bromobenzylidene)-3-(5-(2-dimethylaminoethylthio)-2-thienyl)methylene-2,5-piperazinedione]			4.70	
CN(C)CCSc1ccc(/C=c2\[nH]c(=O)/c(=C/c3ccc(Cl)c(Cl)c3)[nH]c2=O)cc1 [Compound 5465, (3Z,6Z)-3-(3,4-Dichlorobenzylidene)-6-(4-(2-dimethylaminoethylthio)benzylidene)-2,5-piperazinedione]	32	73	5.44	
COc1ccc2ccccc2c1/C=c1\[nH]c(=O)/c(=C/c2ccc(SCCN(C)C)s2)[nH]c1=O [Compound 5499.HCl, (3Z,6Z)-3-(5-(2-Dimethylaminoethylthio)-2-thienyl)methylene-6-(2-methoxy-1-naphthyl)methylene-2,5-piperazinedione]	0	54	4.74	
CN(C)CCSc1ccc(/C=c2\[nH]c(=O)/c(=C/c3c4ccccc4cc4ccccc34)[nH]c2=O)s1 [Compound 5498.HCl, (3Z,6Z)-6-(9-Anthrylmethylene)-3-(5-(2-dimethylaminoethylthio)-2-thienyl)methylene-2,5-piperazinedione]	19	71	4.94	
COC(=O)c1ccc(/C=c2\[nH]c(=O)/c(=C/c3ccc(SCCN(C)C)s3)[nH]c2=O)cc1 [Compound 5477.HCl, (3Z,6Z)-3-(5-(2-Dimethylaminoethylthio)-2-thienyl)methylene-6-(4-methoxycarbonylbenzylidene)-2,5-piperazinedione]	19	69	4.81	
CN(C)CCSc1sc(/C=c2\[nH]c(=O)/c(=C/c3ccccc3)[nH]c2=O)cc1[N+](=O)[O-] [Compound 5403, (3Z,6Z)-6-Benzylidene-3-(5-(2-dimethylaminoethylthio)-4-nitro-2-thienyl)methylene-2,5-piperazinedione]	26	52	4.70	
CN(C)CCSc1ccc(/C=c2\[nH]c(=O)/c(=C/c3cccc(C#N)c3)[nH]c2=O)cc1 [Compound 5476.HCl, (3Z,6Z)-3-(3-Cyanobenzylidene)-6-(4-(2-dimethylaminoethylthio)benzylidene)-2,5-piperazinedione]	11	34		
